In ChEMBL document CHEMBL5500341, “Discovery of pyrido[3,2-d]pyrimidin-6(5H)-one derivatives as checkpoint kinase 1 (CHK1) inhibitors with potent antitumor efficacy” (Eur J Med Chem, 2024):
Calls of active or inactive are those of the source. The calls are words filed in the database; no cut-off is given here.

What was measured:
MV4-11 = experiment: Antiproliferative activity against human MV4-11 cells assessed as inhibition of cell proliferation incubated for 72 hrs by CCK-8 assay; type: functional, cell-based; conditions: MV4-11, 72 h
HT-29 [1] = experiment: cells; conditions: Homo sapiens, HT-29, 72 h
Description: Antiproliferative activity against human HT-29 cells assessed as inhibition of cell proliferation incubated for 72 hrs by CCK-8 assay

[2] = Metabolic stability in human liver microsome assessed as intrinsic clearance preincubated with compound for 10 mins followed by NADPH addition and measured up to 60 min by LC-MS/MS analysis; type: ADME; conditions: liver microsomes, time < 70 min, read-out: CLH
[3] = Metabolic stability in human microsome assessed as intrinsic clearance preincubated with compound for 10 mins followed by NADPH addition and measured up to 60 min by LC-MS/MS analysis; type: ADME; conditions: microsomes, time < 70 min, read-out: CLH
[4] = Metabolic stability in human liver microsome assessed as half life preincubated with compound for 10 mins followed by NADPH addition and measured up to 60 min by LC-MS/MS analysis; type: ADME; conditions: liver microsomes, time < 70 min
HT-29 [5] = experiment: Antitumor activity against human HT-29 cells xenografted in female BALB/c mouse assessed as tumor growth inhibition at 30 mg/kg, iv administered once daily for 21 days and measured after 3 days by vernier calipers analysis; conditions: HT-29, 576 h, read-out: TGI
HT-29 [6] = experiment: Synergistic antiproliferative activity against human HT-29 cells assessed as inhibition of cell proliferation incubated for 72 hrs in presence of 50 nM 5-((4-((morpholin-2-ylmethyl)amino)-5-(trifluoromethyl)pyridin-2-yl)amino)pyrazine-2-carbonitrile by CCK-8 assay; type: functional, cell-based; conditions: HT-29, 72 h
[7] = biological target: T1, Serine/threonine-protein kinase Chk1 (Homo sapiens) (UniProt O14757); experiment: Inhibition of CHK1 in human MV4-11 cells assessed as decrease in S296 phosphorylation at 11.11 nM measured for 24 hrs by Western blot analysis; type: cell-based
T1 sequence (whole entry): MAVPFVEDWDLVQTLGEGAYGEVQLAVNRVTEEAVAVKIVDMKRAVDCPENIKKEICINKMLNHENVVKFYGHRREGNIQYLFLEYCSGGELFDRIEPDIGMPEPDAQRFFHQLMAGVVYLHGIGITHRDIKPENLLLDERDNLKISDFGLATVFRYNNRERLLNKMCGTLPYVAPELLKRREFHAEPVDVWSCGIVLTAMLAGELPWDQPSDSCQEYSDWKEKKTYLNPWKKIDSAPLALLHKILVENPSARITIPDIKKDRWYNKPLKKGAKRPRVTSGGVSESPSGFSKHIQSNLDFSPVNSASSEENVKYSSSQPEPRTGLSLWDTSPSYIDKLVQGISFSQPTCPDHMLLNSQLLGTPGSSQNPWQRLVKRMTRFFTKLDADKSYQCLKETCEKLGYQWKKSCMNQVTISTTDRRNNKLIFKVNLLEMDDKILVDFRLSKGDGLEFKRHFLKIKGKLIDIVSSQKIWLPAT

HL-60 = experiment: cells; conditions: Homo sapiens, HL-60, 72 h
Description: Antiproliferative activity against human HL-60 cells assessed as inhibition of cell proliferation incubated for 72 hrs by CCK-8 assay

MDA-MB-468 = experiment: cells; conditions: Homo sapiens, MDA-MB-468, 72 h
Description: Antiproliferative activity against human MDA-MB-468 cells assessed as inhibition of cell proliferation incubated for 72 hrs by CCK-8 assay

A2780 = experiment: cells; conditions: Homo sapiens, A2780, 72 h
Description: Antiproliferative activity against human A2780 cells assessed as inhibition of cell proliferation incubated for 72 hrs by CCK-8 assay

OVCAR-3 = experiment: cells; conditions: Homo sapiens, OVCAR-3, 72 h
Description: Antiproliferative activity against human OVCAR-3 cells assessed as inhibition of cell proliferation incubated for 72 hrs by CCK-8 assay

HT-29 [8] = experiment: Synergistic antiproliferative activity against human HT-29 cells assessed as inhibition of cell proliferation incubated for 72 hrs in presence of 50 nM gemcitabine by CCK-8 assay; type: functional, cell-based; conditions: HT-29, 72 h
A549 = experiment: cells; conditions: Homo sapiens, A549, 72 h
Description: Antiproliferative activity against human A549 cells assessed as inhibition of cell proliferation incubated for 72 hrs by CCK-8 assay

HCT-116 = experiment: cells; conditions: Homo sapiens, HCT-116, 72 h
Description: Antiproliferative activity against human HCT-116 cells assessed as inhibition of cell proliferation incubated for 72 hrs by CCK-8 assay

SMILES	IC50 (MV4-11) [µM]	further results
N#Cc1ncc(Nc2ncc3c(ccc(=O)n3CC(F)F)n2)cc1N[C@H]1CC[C@H](N)CC1	2.67	–
N#Cc1ncc(Nc2ncc3[nH]c(=O)ccc3n2)cc1NCCN	–	IC50 (HT-29 [1]): > 10 µM
N#Cc1ncc(Nc2ncc3c(ccc(=O)n3CC(F)F)n2)cc1N[C@H]1CC[C@@H](N)CC1	2.47	–
CN1CCC(Oc2cc(Nc3ncc4c(ccc(=O)n4CC(F)F)n3)cnc2C#N)CC1	> 10	–
N#Cc1ncc(Nc2ncc3c(n2)CCC(=O)N3)cc1NC1CCNC1 (single isomer, unassigned)	> 10	IC50 (HT-29 [1]): > 10 µM
O=C(O)Cc1ccccc1Nc1c(Cl)cccc1Cl [DICLOFENAC]	–	CLint scaled [2]: 242 mL/min/kg; microsomal CLint [3]: 269 µL/min/mg; half-life [4]: 5.14 min
N#Cc1ncc(Nc2ncc3c(ccc(=O)n3CC(F)F)n2)cc1OCC1CCNCC1	> 10	–
N#Cc1ncc(Nc2ncc3[nH]c(=O)ccc3n2)cc1NC1CCNC1 (single isomer, unassigned)	> 10	IC50 (HT-29 [1]): > 10 µM
N#Cc1ncc(Nc2ncc3[nH]c(=O)ccc3n2)cc1N1CCOCC1	–	IC50 (HT-29 [1]): > 10 µM
N#Cc1ncc(Nc2ncc3c(ccc(=O)n3CC(F)F)n2)cc1N[C@@H]1CCCNC1	3.63	–
N#Cc1ncc(Nc2ncc3c(ccc(=O)n3CC(=O)O)n2)cc1N[C@H]1CC[C@@H](N)CC1	> 10	–
CC(C)(C)OC(=O)N1CCC(Nc2cc(Nc3ncc4c(n3)CCC(=O)N4)cnc2C#N)C1 (single isomer, unassigned)	> 10	IC50 (HT-29 [1]): > 10 µM
N#Cc1ncc(Nc2ncc3c(ccc(=O)n3CC(F)F)n2)cc1O[C@@H]1CCCNC1	4.88	–
N#Cc1ncc(Nc2ncc3c(ccc(=O)n3CC(F)F)n2)cc1NCCN	> 10	–
N#Cc1ncc(Nc2ncc3c(ccc(=O)n3CC(F)F)n2)cc1OC[C@H]1CCCNC1	> 10	–
N#Cc1ncc(Nc2ncc3[nH]c(=O)ccc3n2)cc1N[C@H]1CC[C@@H](N)CC1	0.0565	IC50 (HT-29 [1]): > 10 µM
Nc1ccn([C@@H]2O[C@H](CO)[C@@H](O)C2(F)F)c(=O)n1 [GEMCITABINE]	–	inhibition in vivo at 30 mg/kg (HT-29 [5]): 33.5%; IC50 (HT-29 [6]): 0.177 µM; inhibition [7]: Active
CCn1c(=O)ccc2nc(Nc3cnc(C#N)c(N[C@H]4CC[C@@H](N)CC4)c3)ncc21	2.23	–

SMILES	IC50 (MV4-11) [µM]	further results
CC(C)n1c(=O)ccc2nc(Nc3cnc(C#N)c(N[C@H]4CC[C@@H](N)CC4)c3)ncc21	2.19	–
N#Cc1ncc(Nc2ncc3[nH]c(=O)ccc3n2)cc1N[C@H]1CCCNC1	0.0195	IC50 (HT-29 [1]): > 10 µM
N#Cc1ncc(Nc2ncc3c(ccc(=O)n3CC(N)=O)n2)cc1N[C@H]1CC[C@@H](N)CC1	8.64	–
N#Cc1ncc(Nc2ncc3c(ccc(=O)n3CC(F)(F)F)n2)cc1N[C@H]1CC[C@@H](N)CC1	2.11	–
N#Cc1ncc(Nc2ncc3c(ccc(=O)n3CC(F)F)n2)cc1NC1CCNCC1	> 10	–
N#Cc1ncc(Nc2ncc3c(ccc(=O)n3CC(F)F)n2)cc1OC1CCNCC1	> 10	–
N#Cc1cnc(Nc2cc(NC[C@H]3CNCCO3)c(C(F)(F)F)cn2)cn1 [SRA-737]	–	IC50 (HL-60): > 10 µM; IC50 (MDA-MB-468): > 10 µM; IC50 (HT-29 [1]): > 10 µM; IC50 (A2780): > 10 µM; IC50 (OVCAR-3): > 10 µM; IC50 (HT-29 [8]): 0.177 µM; IC50 (A549): > 10 µM; IC50 (HCT-116): > 10 µM
N#Cc1ncc(Nc2ncc3c(ccc(=O)n3CC(F)F)n2)cc1OCCCN	> 10	–
N#Cc1ncc(Nc2ncc3c(ccc(=O)n3CC(F)F)n2)cc1NC[C@H]1CCNC1	> 10	–
N#Cc1ncc(Nc2ncc3c(ccc(=O)n3CC(F)F)n2)cc1O[C@@H]1CCNC1	> 10	–
N#Cc1ncc(Nc2ncc3c(ccc(=O)n3CC(F)F)n2)cc1NCC1CCCCN1 (configuration not stated)	3.8	–
N#Cc1ncc(Nc2ncc3c(ccc(=O)n3CC(F)(F)F)n2)cc1N[C@H]1CCNC1	> 10	–
N#Cc1ncc(Nc2ncc3c(ccc(=O)n3CC(F)F)n2)cc1O[C@H]1CCCNC1	> 10	–
CN(C)CCNc1cc(Nc2ncc3c(ccc(=O)n3CC(F)F)n2)cnc1C#N	3.81	–
Cn1c(=O)ccc2nc(Nc3cnc(C#N)c(N[C@H]4CC[C@@H](N)CC4)c3)ncc21	0.883	–
N#Cc1ncc(Nc2ncc3[nH]c(=O)ccc3n2)cc1N[C@H]1CC[C@H](N)CC1	0.0394	IC50 (HT-29 [1]): > 10 µM
N#Cc1ncc(Nc2ncc3[nH]c(=O)ccc3n2)cc1NC[C@@H]1CCCNC1	–	IC50 (HT-29 [1]): > 10 µM
